{"source": "patent US4101538A", "about": "“Nonapeptides and methods for their production” (Warner-Lambert, priority 1977, dated 1978)", "tested_on": "LRF (luteinizing hormone releasing factor) induced luteinizing hormone (LH) release", "experiment": "In vitro LRF antagonist test in rat anterior pituitary cell cultures", "assay_type": "cell-based", "text": "Nonapeptides of this invention were screened for LRF antagonist activity in vitro using rat anterior pituitary cell cultures as described by Vale et. al. [Endocrinology, 91, 562 (1972)]. The inhibition of LRF (luteinizing hormone releasing factor) induced luteinizing hormone (LH) release into the culture medium is the endpoint in this in vitro bioassay.", "note": "Where a SMILES comes first, the peptide text is derived from it. The star is where a group is joined. Cbz = O=C(OCc1ccccc1)*; Bn = c1ccc(C*)cc1"}
{"molecule": "NC(=O)CC[C@H](NC(=O)OCc1ccccc1)C(=O)N[C@@H](Cc1c[nH]c2ccccc12)C(=O)N[C@@H](CO)C(=O)N[C@@H](Cc1ccc(O)cc1)C(=O)N[C@@H](Cc1c[nH]c2ccccc12)C(=O)N1CCC[C@H]1C(=O)N1CCC[C@H]1C(=O)N[C@@H](Cc1ccc(OCc2ccccc2)cc1)C(=O)N[C@@H](COCc1ccccc1)C(N)=O", "note": "[N^α -benzyloxycarbonyl-L-glutaminyl-L-tryptophyl-L-seryl-L-tyrosyl-L-tryptophyl-L-prolyl-L-prolyl-O-benzyl-L-tyrosyl-O-benzyl-L-serinamide] (Cbz-QWSYWPPY(Bn)S(Bn)-NH2)", "values": [{"measurement": "% LH Release Inhibition", "setting": "compound molar conc. 1×10^-7", "value": 29, "unit": "%"}, {"measurement": "LH Value", "setting": "compound molar conc. 1×10^-7, LH released into culture medium", "value": 52.33, "unit": "ng/mL"}, {"measurement": "% LH Release Inhibition", "setting": "compound molar conc. 1×10^-8", "value": 37, "unit": "%"}, {"measurement": "LH Value", "setting": "compound molar conc. 1×10^-8, LH released into culture medium", "value": 47.20, "unit": "ng/mL"}]}
{"molecule": "LRF Control: luteinizing hormone releasing factor, also referred to as luteinizing hormone releasing hormone (LH-RH); stimulates secretion of luteinizing hormone (QHWSYGLRPG; Gonadoliberin-1; UniProt P01148 24-33, looked up) [reference compound]", "values": [{"measurement": "LH Value", "setting": "LRF alone, molar conc. 5×10^-10", "value": 69.51, "unit": "ng/mL"}]}
